In ChEMBL document CHEMBL5325488, “Discovery of SMD-3040 as a Potent and Selective SMARCA2 PROTAC Degrader with Strong in vivo Antitumor Activity” (J Med Chem, 2023):
Calls of active or inactive are those of the source. The rule behind the calls is not given here.

Columns and labels:
[1] = biological target: T1, von Hippel-Lindau disease tumor suppressor/SWI/SNF-related matrix-associated actin-dependent regulator of chromatin subfamily A member 2 (Homo sapiens, UniProt P51531+P40337); assay: In vivo PROTAC activity at VHL/SMARCA2 in SCID mouse xenografted with human NCI-H838 cells assessed as reduction of SMARCA2 level in tumor at 50 mg/kg, iv administered as single dose measured after 3 hrs by Western blotting analysis; format: functional, organism-based; design: scale not given: the % may be the effect or the level left
Target sequence in this assay (P40337 whole entry, looked up, the tested form may be a part): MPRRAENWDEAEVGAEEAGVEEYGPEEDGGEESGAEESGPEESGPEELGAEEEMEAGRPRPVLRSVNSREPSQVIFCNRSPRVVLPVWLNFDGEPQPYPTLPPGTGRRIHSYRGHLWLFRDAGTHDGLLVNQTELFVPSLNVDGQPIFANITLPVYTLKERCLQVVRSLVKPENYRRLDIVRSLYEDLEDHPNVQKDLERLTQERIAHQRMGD
Target sequence in this assay (P51531 whole entry, looked up, the tested form may be a part): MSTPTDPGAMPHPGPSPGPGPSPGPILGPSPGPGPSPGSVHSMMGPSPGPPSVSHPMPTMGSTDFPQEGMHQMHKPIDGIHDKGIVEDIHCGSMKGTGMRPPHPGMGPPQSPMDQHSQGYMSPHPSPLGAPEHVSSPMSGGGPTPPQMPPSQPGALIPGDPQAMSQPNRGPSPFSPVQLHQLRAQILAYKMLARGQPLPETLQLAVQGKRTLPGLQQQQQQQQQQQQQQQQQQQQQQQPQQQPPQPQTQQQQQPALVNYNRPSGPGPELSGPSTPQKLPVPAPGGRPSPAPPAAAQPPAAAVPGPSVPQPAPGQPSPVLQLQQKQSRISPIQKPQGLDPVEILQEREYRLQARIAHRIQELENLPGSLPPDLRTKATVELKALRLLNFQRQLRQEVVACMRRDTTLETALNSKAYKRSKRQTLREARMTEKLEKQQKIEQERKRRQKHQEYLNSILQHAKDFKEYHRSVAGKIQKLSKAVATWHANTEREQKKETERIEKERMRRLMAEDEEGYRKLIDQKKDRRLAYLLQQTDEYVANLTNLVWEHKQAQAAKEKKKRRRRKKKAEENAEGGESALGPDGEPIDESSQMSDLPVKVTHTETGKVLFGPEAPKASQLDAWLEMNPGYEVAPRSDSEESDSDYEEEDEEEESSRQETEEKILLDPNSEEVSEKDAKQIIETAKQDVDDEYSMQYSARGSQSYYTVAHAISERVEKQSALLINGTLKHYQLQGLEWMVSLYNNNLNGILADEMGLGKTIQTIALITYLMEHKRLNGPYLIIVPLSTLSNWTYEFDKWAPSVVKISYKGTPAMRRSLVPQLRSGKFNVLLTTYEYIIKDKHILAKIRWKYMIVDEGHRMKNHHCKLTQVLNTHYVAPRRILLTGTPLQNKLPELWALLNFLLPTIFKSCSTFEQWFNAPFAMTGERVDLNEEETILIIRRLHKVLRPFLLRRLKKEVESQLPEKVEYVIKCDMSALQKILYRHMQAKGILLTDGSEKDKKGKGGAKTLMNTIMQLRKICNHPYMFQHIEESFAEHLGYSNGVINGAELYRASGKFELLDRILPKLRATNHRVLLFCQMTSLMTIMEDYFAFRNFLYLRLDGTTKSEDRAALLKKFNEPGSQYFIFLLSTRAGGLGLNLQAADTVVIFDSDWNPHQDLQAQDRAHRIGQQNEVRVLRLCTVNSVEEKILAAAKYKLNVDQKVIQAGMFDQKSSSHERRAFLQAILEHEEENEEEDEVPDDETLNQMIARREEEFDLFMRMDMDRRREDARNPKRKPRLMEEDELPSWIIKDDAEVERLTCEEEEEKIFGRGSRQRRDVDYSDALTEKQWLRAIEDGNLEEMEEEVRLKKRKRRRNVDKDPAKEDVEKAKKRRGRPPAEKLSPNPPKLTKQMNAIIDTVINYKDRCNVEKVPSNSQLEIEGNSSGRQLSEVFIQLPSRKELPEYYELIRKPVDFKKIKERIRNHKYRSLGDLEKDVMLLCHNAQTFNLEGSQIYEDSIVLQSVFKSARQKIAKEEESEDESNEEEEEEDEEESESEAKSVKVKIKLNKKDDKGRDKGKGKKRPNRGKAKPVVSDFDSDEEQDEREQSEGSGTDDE

[2] = biological target: T1, von Hippel-Lindau disease tumor suppressor/SWI/SNF-related matrix-associated actin-dependent regulator of chromatin subfamily A member 2; assay: PROTAC activity at VHL/C-terminal HiBiT fused SMARCA2 in human HeLa cells assessed as induction of SMARCA2 degradation pre-treated with PR171 for 2 hrs followed by compound treatment for 24 hrs by Nano-Glo HiBiT analysis; format: cell-based
Target sequence in this assay (P40337 whole entry, looked up, the tested form may be a part): as the sequence (P40337 whole entry, looked up, the tested form may be a part) above
Target sequence in this assay (P51531 whole entry, looked up, the tested form may be a part): as the sequence (P51531 whole entry, looked up, the tested form may be a part) above

[3] = biological target: T2, von Hippel-Lindau disease tumor suppressor/SWI/SNF-related matrix-associated actin-dependent regulator of chromatin subfamily A member 4 (Homo sapiens, UniProt P51532+P40337); assay: PROTAC activity at VHL/wild-type SMARCA4 in human SK-MEL-28 cells assessed as induction of SMARCA4 degradation incubated for 24 hrs by Western blotting analysis; format: cell-based
Target sequence in this assay (P51532 whole entry): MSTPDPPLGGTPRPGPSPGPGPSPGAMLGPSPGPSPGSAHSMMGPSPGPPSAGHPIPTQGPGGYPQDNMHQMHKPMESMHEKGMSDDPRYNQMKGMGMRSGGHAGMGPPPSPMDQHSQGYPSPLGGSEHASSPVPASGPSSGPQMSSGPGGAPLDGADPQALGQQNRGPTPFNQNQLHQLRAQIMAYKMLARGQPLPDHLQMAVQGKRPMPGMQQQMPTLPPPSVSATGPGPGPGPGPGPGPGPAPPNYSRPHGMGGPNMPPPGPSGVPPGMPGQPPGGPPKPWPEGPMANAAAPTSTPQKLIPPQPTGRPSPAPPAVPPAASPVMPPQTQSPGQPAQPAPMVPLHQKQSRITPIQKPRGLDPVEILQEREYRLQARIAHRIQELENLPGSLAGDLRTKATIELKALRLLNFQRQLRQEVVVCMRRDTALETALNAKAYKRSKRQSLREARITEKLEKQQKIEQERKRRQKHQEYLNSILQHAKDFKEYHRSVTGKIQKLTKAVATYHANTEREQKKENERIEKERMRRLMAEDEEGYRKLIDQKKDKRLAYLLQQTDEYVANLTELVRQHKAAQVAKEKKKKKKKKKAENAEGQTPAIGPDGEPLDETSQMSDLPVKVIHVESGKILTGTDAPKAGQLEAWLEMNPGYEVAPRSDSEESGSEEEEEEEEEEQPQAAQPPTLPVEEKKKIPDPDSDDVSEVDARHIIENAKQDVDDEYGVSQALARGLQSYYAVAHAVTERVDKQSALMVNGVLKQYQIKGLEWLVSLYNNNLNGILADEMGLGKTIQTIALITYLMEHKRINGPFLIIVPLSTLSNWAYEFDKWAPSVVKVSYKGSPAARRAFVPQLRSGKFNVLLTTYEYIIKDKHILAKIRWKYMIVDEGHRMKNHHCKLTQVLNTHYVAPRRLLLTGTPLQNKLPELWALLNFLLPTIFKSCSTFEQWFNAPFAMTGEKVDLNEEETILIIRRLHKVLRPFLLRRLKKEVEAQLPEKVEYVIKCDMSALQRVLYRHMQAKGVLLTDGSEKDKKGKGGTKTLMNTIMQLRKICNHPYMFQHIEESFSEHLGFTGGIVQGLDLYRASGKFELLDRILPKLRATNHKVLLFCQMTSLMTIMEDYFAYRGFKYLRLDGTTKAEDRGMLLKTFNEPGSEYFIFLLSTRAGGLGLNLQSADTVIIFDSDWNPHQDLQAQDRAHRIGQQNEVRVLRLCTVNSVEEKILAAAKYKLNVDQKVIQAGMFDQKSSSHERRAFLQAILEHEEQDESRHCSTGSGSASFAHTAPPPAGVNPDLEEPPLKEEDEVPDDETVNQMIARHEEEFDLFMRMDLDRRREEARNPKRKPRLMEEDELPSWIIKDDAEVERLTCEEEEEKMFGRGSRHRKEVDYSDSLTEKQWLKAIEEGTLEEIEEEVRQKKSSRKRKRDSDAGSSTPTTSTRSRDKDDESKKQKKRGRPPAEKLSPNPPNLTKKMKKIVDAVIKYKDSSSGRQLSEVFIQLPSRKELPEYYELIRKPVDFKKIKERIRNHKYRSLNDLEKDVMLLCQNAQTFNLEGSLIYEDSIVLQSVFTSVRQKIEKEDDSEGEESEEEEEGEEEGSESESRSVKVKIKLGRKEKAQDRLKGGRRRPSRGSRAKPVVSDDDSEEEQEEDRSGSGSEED
Target sequence in this assay (P40337 whole entry): as the sequence (P40337 whole entry, looked up, the tested form may be a part) above

[4] = Drug concentration in SCID mouse plasma xenografted with human MV4-11 cells at 50 mg/kg, iv measured after 72 hrs by LC-MS/MS method; format: ADME, organism-based
[5] = biological target: T1, von Hippel-Lindau disease tumor suppressor/SWI/SNF-related matrix-associated actin-dependent regulator of chromatin subfamily A member 2; assay: PROTAC activity at VHL/C-terminal HiBiT fused SMARCA2 in human HeLa cells assessed as induction of SMARCA2 degradation incubated for 1 hr by Nano-Glo HiBiT analysis; format: cell-based
[6] = biological target: T2, von Hippel-Lindau disease tumor suppressor/SWI/SNF-related matrix-associated actin-dependent regulator of chromatin subfamily A member 4; assay: PROTAC activity at VHL/C-terminal HiBiT fused SMARCA4 in human HeLa cells assessed as induction of SMARCA4 degradation by measuring maximal efficacy at 0.001 to 10 uM incubated for 24 hrs by Nano-Glo HiBiT analysis relative to control; format: cell-based; details: dose 0.001-10 µM
[7] = Drug concentration in SCID mouse plasma xenografted with human MV4-11 cells at 50 mg/kg, iv measured after 2 hrs by LC-MS/MS method; format: ADME, organism-based
[8] = biological target: T1, von Hippel-Lindau disease tumor suppressor/SWI/SNF-related matrix-associated actin-dependent regulator of chromatin subfamily A member 2; assay: PROTAC activity at VHL/C-terminal HiBiT fused SMARCA2 in human HeLa cells assessed as induction of SMARCA2 degradation by measuring maximal efficacy at 0.0001 to 1 uM incubated for 48 hrs by Nano-Glo HiBiT analysis relative to control; format: cell-based; details: dose 0.0001-1 µM
Target sequence in this assay (P40337 whole entry, looked up, the tested form may be a part): as above
Target sequence in this assay (P51531 whole entry, looked up, the tested form may be a part): as the sequence (P51531 whole entry, looked up, the tested form may be a part) above

[9] = biological target: T1, von Hippel-Lindau disease tumor suppressor/SWI/SNF-related matrix-associated actin-dependent regulator of chromatin subfamily A member 2; assay: In vivo PROTAC activity at VHL/SMARCA2 in SCID mouse xenografted with human NCI-H838 cells assessed as reduction of SMARCA2 level in tumor at 50 mg/kg, iv administered as single dose measured after 96 hrs by Western blotting analysis; format: functional, organism-based; design: scale not given: the % may be the effect or the level left
Target sequence in this assay (P40337 whole entry, looked up, the tested form may be a part): as the sequence (P40337 whole entry, looked up, the tested form may be a part) above
Target sequence in this assay (P51531 whole entry, looked up, the tested form may be a part): as the sequence (P51531 whole entry, looked up, the tested form may be a part) above

[10] = Toxicity in SCID mouse xenografted with human SK-MEL-5 cells assessed as effect on change in body weight at 25 to 50 mg/kg, iv administered twice a week measured after 32 days; format: organism-based; details: in vivo, 768 h, dose 25-50 mg/kg, time 32 day
[11] = tested on: NCI-H1793; assay: Antiproliferative activity against SMARCA4-deficient human NCI-H1793 cells assessed as cell growth inhibition measured after 7 days by WST-8 assay; format: functional; details: NCI-H1793, 168 h, time 7 day
[12] = Drug concentration in SCID mouse tumor xenografted with human MV4-11 cells at 50 mg/kg, iv measured after 6 hrs by LC-MS/MS method; format: ADME, organism-based, Neoplasm; details: read-out: Ct
[13] = Drug concentration in SCID mouse plasma xenografted with human MV4-11 cells at 50 mg/kg, iv measured after 96 hrs by LC-MS/MS method; format: ADME, organism-based
[14] = biological target: T2, von Hippel-Lindau disease tumor suppressor/SWI/SNF-related matrix-associated actin-dependent regulator of chromatin subfamily A member 4; assay: PROTAC activity at VHL/C-terminal HiBiT fused SMARCA4 in human HeLa cells assessed as induction of SMARCA4 degradation by measuring maximal efficacy at 0.001 to 10 uM incubated for 3 hrs by Nano-Glo HiBiT analysis relative to control; format: cell-based; details: dose 0.001-10 µM
[15] = Drug concentration in SCID mouse tumor xenografted with human MV4-11 cells at 50 mg/kg, iv measured after 2 hrs by LC-MS/MS method; format: ADME, organism-based, Neoplasm; details: read-out: Ct
[16] = biological target: T1, von Hippel-Lindau disease tumor suppressor/SWI/SNF-related matrix-associated actin-dependent regulator of chromatin subfamily A member 2; assay: In vivo PROTAC activity at VHL/SMARCA2 in SCID mouse xenografted with human NCI-H838 cells assessed as remaining activity in tumor at 50 mg/kg, iv administered as single dose measured after 24 hrs by Western blotting analysis (reference value: 100 +/- 7% ); format: functional, organism-based
Target sequence in this assay (P40337 whole entry, looked up, the tested form may be a part): as the sequence (P40337 whole entry, looked up, the tested form may be a part) above
Target sequence in this assay (P51531 whole entry, looked up, the tested form may be a part): as the sequence (P51531 whole entry, looked up, the tested form may be a part) above

[17] = biological target: T1, von Hippel-Lindau disease tumor suppressor/SWI/SNF-related matrix-associated actin-dependent regulator of chromatin subfamily A member 2; assay: In vivo PROTAC activity at VHL/SMARCA2 in SCID mouse xenografted with human MV4-11 cells assessed as reduction of SMARCA2 level in tumor at 50 mg/kg, iv administered as single dose measured after 96 hrs by Western blotting analysis; format: ADME, organism-based; design: scale not given: the % may be the effect or the level left
[18] = tested on: NCI-H647; assay: Antiproliferative activity against human NCI-H647 cells expressing wild-type SMARCA2 assessed as cell growth inhibition by measuring maximal efficacy measured after 7 days by WST-8 assay relative to control; format: functional; details: time 7 day
[19] = biological target: T2, von Hippel-Lindau disease tumor suppressor/SWI/SNF-related matrix-associated actin-dependent regulator of chromatin subfamily A member 4; assay: In vivo PROTAC activity at VHL/SMARCA4 in SCID mouse xenografted with human MV4-11 cells assessed as remaining activity in tumor at 50 mg/kg, iv administered as single dose measured after 96 hrs by Western blotting analysis (reference value: 100 +/- 15 % ); format: ADME, organism-based
Target sequence in this assay (P51532 whole entry): as the sequence (P51532 whole entry) above
Target sequence in this assay (P40337 whole entry): as the sequence (P40337 whole entry, looked up, the tested form may be a part) above

[20] = biological target: T2, von Hippel-Lindau disease tumor suppressor/SWI/SNF-related matrix-associated actin-dependent regulator of chromatin subfamily A member 4; assay: PROTAC activity at VHL/C-terminal HiBiT fused SMARCA4 in human HeLa cells assessed as induction of SMARCA4 degradation incubated for 24 hrs by Nano-Glo HiBiT analysis; format: cell-based
Target sequence in this assay (P51532 whole entry): as the sequence (P51532 whole entry) above
Target sequence in this assay (P40337 whole entry): as the sequence (P40337 whole entry, looked up, the tested form may be a part) above

[21] = biological target: T1, von Hippel-Lindau disease tumor suppressor/SWI/SNF-related matrix-associated actin-dependent regulator of chromatin subfamily A member 2; assay: PROTAC activity at VHL/wild-type SMARCA2 in human SK-MEL-28 cells assessed as induction of SMARCA2 degradation incubated for 24 hrs by Western blotting analysis; format: cell-based
[22] = biological target: T1, von Hippel-Lindau disease tumor suppressor/SWI/SNF-related matrix-associated actin-dependent regulator of chromatin subfamily A member 2; assay: PROTAC activity at VHL/C-terminal HiBiT fused SMARCA2 in human HeLa cells assessed as induction of SMARCA2 degradation incubated for 48 hrs by Nano-Glo HiBiT analysis; format: cell-based
[23] = biological target: T1, von Hippel-Lindau disease tumor suppressor/SWI/SNF-related matrix-associated actin-dependent regulator of chromatin subfamily A member 2; assay: PROTAC activity at VHL/C-terminal HiBiT fused SMARCA2 in human HeLa cells assessed as induction of SMARCA2 degradation pre-treated with 2-(6-amino-5-(1-methyl-1H-pyrazol-4-yl)pyridazin-3-yl)phenol for 2 hrs followed by compound treatment for 24 hrs by Nano-Glo HiBiT analysis; format: cell-based
Target sequence in this assay (P40337 whole entry, looked up, the tested form may be a part): as above
Target sequence in this assay (P51531 whole entry, looked up, the tested form may be a part): as the sequence (P51531 whole entry, looked up, the tested form may be a part) above

[24] = tested on: NCI-H838; assay: Antiproliferative activity against SMARCA4-deficient human NCI-H838 cells assessed as cell growth inhibition measured after 7 days by WST-8 assay; format: functional; details: NCI-H838, 168 h, time 7 day
[25] = biological target: T2, von Hippel-Lindau disease tumor suppressor/SWI/SNF-related matrix-associated actin-dependent regulator of chromatin subfamily A member 4; assay: In vivo PROTAC activity at VHL/SMARCA4 in SCID mouse xenografted with human MV4-11 cells assessed as reduction of SMARCA4 level in tumor at 50 mg/kg, iv administered as single dose measured after 24 hrs by Western blotting analysis; format: ADME, organism-based; design: scale not given: the % may be the effect or the level left
Target sequence in this assay (P51532 whole entry): as the sequence (P51532 whole entry) above
Target sequence in this assay (P40337 whole entry): as the sequence (P40337 whole entry, looked up, the tested form may be a part) above

[26] = tested on: NCI-H1793; assay: Antiproliferative activity against SMARCA4-deficient human NCI-H1793 cells assessed as cell growth inhibition by measuring maximal efficacy measured after 7 days by WST-8 assay relative to control; format: functional; details: time 7 day
[27] = tested on: NCI-H838; assay: Antiproliferative activity against SMARCA4-deficient human NCI-H838 cells assessed as cell growth inhibition by measuring maximal efficacy measured after 7 days by WST-8 assay relative to control; format: functional; details: time 7 day

With Cc1ncsc1-c1ccc([C@H](C)NC(=O)[C@@H]2C[C@@H](O)CN2C(=O)[C@@H](NC(=O)[C@H]2CC[C@H](CN3CC4(CCC(n5cc(-c6cc(-c7ccccc7O)nnc6N)cn5)CC4)C3)CC2)C(C)(C)C)cc1 the Activity [1] was 70%, the Activity [2] was “inactive” and the DC50 [3] was greater than 1000 nM. It also gave a concentration at 72 h [4] of 6.7 ng/mL, a DC50 [5] of 250 nM and an Emax [6] of 57%. For the same compound, the concentration at 2 h [7] was 2730 ng/mL, the Emax [8] was 94% and the Activity [9] was 67%. The Activity [10] was “Non-Toxic”, the GI50 [11] was 21 nM and the concentration at 6 h [12] was 1100 ng/g. The concentration at 96 h [13] was 19.6 ng/mL, the Emax [14] was 46% and the concentration at 2 h [15] was 3420 ng/g. It also gave an Activity [16] of 9%, an Activity [17] of 74% and an Imax [18] of 74%. For the same compound, the Activity [19] was 84%, the DC50 [20] was greater than 339 nM and the DC50 [21] was 35 nM. The DC50 [22] was 11 nM, the Activity [23] was “inactive” and the GI50 [24] was 119 nM. The Activity [25] was 29%, the Imax [26] was 69% and the Imax [27] was 83%.
